SMILES strings stand for the structures. A value given as a limit tells only on which side of the number the result lay.

One may read the IC50 as the concentration needed to halve the response being measured.

The first assay relates to glycolysis in HT1080 cells. As to the kind of experiment: Glycolysis assay: oligomycin plus compound, cellular ATP by Cell Titer Glo. The class given is cell-based. The settings on record: 10 μM oligomycin, one hour, class symbols. An excerpt:
Therefore, an assay was developed that utilizes the combination of the glucose uptake inhibitors disclosed herein with oligomycin, a well-characterized inhibitor of ATP synthase. Because oligomycin inhibits ATP derived from oxidative phosphorylation, any remaining ATP production is derived from glycolysis. By reading out cellular ATP levels using the Promega Cell Titer Glo kit, the extent of glycolysis inhibition by the glucose uptake inhibitors disclosed herein can be assessed. […] Utilizing this experimental set-up, the IC50 of glycolysis inhibition for each compound can be determined.
Determination of Glucose Uptake/GLUT Activity (Glycolysis Assay):
HT1080 cells (as well as other cell types) were plated to confluency in 96-well plates. Cells were exposed to the combination of 10 μM Oligomycin (to block mitochondrial-derived ATP) and the glucose uptake inhibitors disclosed herein for one-hour, after which glycolytically-derived ATP was measured with the Cell Titer-Glo assay kit (Promega). Dose-response curves of the glucose uptake inhibitors disclosed herein were used to determine the IC50 for GLUT activity.
(In ATP-based viability assays light output follows the ATP content of the culture.)
`O=C(Nc1cccc(-c2nc(Nc3ccc(-c4cn[nH]c4)cc3)c3sccc3n2)c1)c1cccnc1` [Example 43, N-(3-(4-((4-(1H-pyrazol-4-yl)phenyl)amino)thieno[3,2-d]pyrimidin-2-yl)phenyl)nicotinamide]: the IC50 is 101 to 250 nM.

The same assay, now with this note: Homo sapiens, HT-1080, 1 h, 10 μM oligomycin, one hour, class symbols.
In the case of `O=C(CN1CCOCC1)Nc1cccc(-c2nc3c(c(Nc4ccc(-c5cn[nH]c5)cc4)n2)COC3)c1` [Example 2, N-(3-(4-((4-(1H-pyrazol-4-yl)phenyl)amino)-5,7-dihydrofuro[3,4-d]pyrimidin-2-yl)phenyl)-2-morpholinoacetamide], the IC50 was over 1000 nM. In the case of `CC(C)NC(=O)COc1cccc(-c2nc(Nc3ccc(-c4cn[nH]c4)cc3)c3occc3n2)c1` [Example 3, 2-(3-(4-((4-(1H-pyrazol-4-yl)phenyl)amino)furo[3,2-d]pyrimidin-2-yl)phenoxy)-N-isopropylacetamide], the IC50 was 251 to 500 nM.

`O=C(CN1CCOCC1)Nc1cccc(-c2nc(Nc3ccc(-c4cn[nH]c4)cc3)c3occc3n2)c1` [Example 4, N-(3-(4-((4-(1H-pyrazol-4-yl)phenyl)amino)furo[3,2-d]pyrimidin-2-yl)phenyl)-2-morpholinoacetamide]: the IC50 was over 1000 nM. For the compound `Cn1cnc2c(Nc3ccc(-c4cn[nH]c4)cc3)nc(-c3cccc(NC(=O)CN4CCOCC4)c3)nc21` [Example 6, N-(3-(6-((4-(1H-pyrazol-4-yl)phenyl)amino)-9-methyl-9H-purin-2-yl)phenyl)-2-morpholinoacetamide], the IC50 was over 1000 nM. The same measure, in the same setting: under `O=C(CN1CCOCC1)Nc1cccc(-c2nc(Nc3ccc(-c4cn[nH]c4)cc3)c3sccc3n2)c1` [Example 8, N-(3-(4-((4-(1H-pyrazol-4-yl)phenyl)amino)thieno[3,2-d]pyrimidin-2-yl)phenyl)-2-morpholinoacetamide] stands over 1000 nM. With `CC(C)NC(=O)COc1cccc(-c2nc(Nc3ccc(-c4cn[nH]c4)cc3)c3ccsc3n2)c1` [Example 9, 2-(3-(4-((4-(1H-pyrazol-4-yl)phenyl)amino)thieno[2,3-d]pyrimidin-2-yl)phenoxy)-N-isopropylacetamide], the IC50 was 101 to 250 nM. The same measure, in the same setting: with `O=C(CN1CCOCC1)Nc1cccc(-c2nc(Nc3ccc(-c4cn[nH]c4)cc3)c3ccsc3n2)c1` [Example 10, N-(3-(4-((4-(1H-pyrazol-4-yl)phenyl)amino)thieno[2,3-d]pyrimidin-2-yl)phenyl)-2-morpholinoacetamide] the figure was over 1000 nM; with `CC(C)NC(=O)COc1cccc(-c2nc3c(c(Nc4ccc5[nH]ncc5c4)n2)COC3)c1` [Example 11, 2-(3-(4-((1H-indazol-5-yl)amino)-5,7-dihydrofuro[3,4-d]pyrimidin-2-yl)phenoxy)-N-isopropylacetamide], over 1000 nM. Regarding `CC(C)NC(=O)COc1cccc(-c2nc(Nc3ccc4[nH]ncc4c3)c3ncn(C)c3n2)c1` [Example 13], the IC50 was over 1000 nM. Regarding `Cn1cnc2c(Nc3ccc4[nH]ncc4c3)nc(-c3cccc(NC(=O)CN4CCOCC4)c3)nc21` [Example 14], the IC50 was over 1000 nM. For `CC(C)NC(=O)COc1cccc(-c2nc(Nc3ccc4[nH]ncc4c3)c3sccc3n2)c1` [Example 15], the IC50 is over 1000 nM. On the same count and under the same terms, under `O=C(CN1CCOCC1)Nc1cccc(-c2nc(Nc3ccc4[nH]ncc4c3)c3sccc3n2)c1` [Example 16] stands over 1000 nM; under `CC(C)NC(=O)COc1cccc(-c2nc(Nc3ccc4[nH]ncc4c3)c3ccsc3n2)c1` [Example 17], over 1000 nM. The same measure, in the same setting: under `O=C(CN1CCOCC1)Nc1cccc(-c2nc(Nc3ccc4[nH]ncc4c3)c3ccsc3n2)c1` [Example 18] stands over 1000 nM; under `O=C(COc1cccc(-c2nc(Nc3ccc(-c4cn[nH]c4)cc3)c3sccc3n2)c1)NC1CC1` [Example 20], 501 to 1000 nM. Consider `Cn1cnc2c(Nc3ccc(-c4cn[nH]c4)cc3)nc(-c3cccc(OCC(=O)NC4CC4)c3)nc21` [Example 22], for which the IC50 was over 1000 nM. `O=C(COc1cccc(-c2nc(Nc3ccc(-c4cn[nH]c4)cc3)c3occc3n2)c1)NC1CCC1` [Example 25]: the 50% inhibitory concentration (IC50) lay in the range of 251 to 500 nM. The same measure, in the same setting: under `O=C(COc1cccc(-c2nc(Nc3ccc(-c4cn[nH]c4)cc3)c3occc3n2)c1)NC1CCCC1` [Example 26] stands 251 to 500 nM; under `O=C(COc1cccc(-c2nc(Nc3ccc(-c4cn[nH]c4)cc3)c3ccsc3n2)c1)NC1CCC1` [Example 27], 101 to 250 nM; under `O=C(COc1cccc(-c2nc(Nc3ccc(-c4cn[nH]c4)cc3)c3ccsc3n2)c1)NC1CCCC1` [Example 28], 101 to 250 nM. The same measure, in the same setting: under `Cn1cnc2c(Nc3ccc(-c4cn[nH]c4)cc3)nc(-c3cccc(OCC(=O)NC4CCC4)c3)nc21` [Example 29] stands 251 to 500 nM; under `Cn1cnc2c(Nc3ccc(-c4cn[nH]c4)cc3)nc(-c3cccc(OCC(=O)NC4CCCC4)c3)nc21` [Example 30], 101 to 250 nM; under `CC(C)NC(=O)COc1cc(F)cc(-c2nc3c(c(Nc4ccc(-c5cn[nH]c5)cc4)n2)COC3)c1` [Example 33], 501 to 1000 nM. In the case of `CC(C)NC(=O)COc1cc(F)cc(-c2nc(Nc3ccc(-c4cn[nH]c4)cc3)c3sccc3n2)c1` [Example 34], the half-maximal inhibitory concentration (IC50) was over 1000 nM.

Take `CC(C)NC(=O)COc1cc(F)cc(-c2nc(Nc3ccc(-c4cn[nH]c4)cc3)c3ccsc3n2)c1` [Example 35]: the IC50 was over 1000 nM. Same read-out and setting: under `CC(C)NC(=O)COc1cc(F)cc(-c2nc(Nc3ccc(-c4cn[nH]c4)cc3)c3ncn(C)c3n2)c1` [Example 36] stands over 1000 nM; under `O=C(COc1cccc(-c2nc3c(c(Nc4ccc(-c5cn[nH]c5)cc4)n2)COC3)c1)N1CCOCC1` [Example 37, 2-(3-(4-((4-(1H-pyrazol-4-yl)phenyl)amino)-5,7-dihydrofuro[3,4-d]pyrimidin-2-yl)phenoxy)-1-morpholinoethan-1-one], over 1000 nM; under `O=C(COc1cccc(-c2nc(Nc3ccc(-c4cn[nH]c4)cc3)c3sccc3n2)c1)N1CCOCC1` [Example 38, 2-(3-(4-((4-(1H-pyrazol-4-yl)phenyl)amino)thieno[3,2-d]pyrimidin-2-yl)phenoxy)-1-morpholinoethan-1-one], 501 to 1000 nM.

On to `O=C(COc1cccc(-c2nc(Nc3ccc(-c4cn[nH]c4)cc3)c3ccsc3n2)c1)N1CCOCC1` [Example 39, 2-(3-(4-((4-(1H-pyrazol-4-yl)phenyl)amino)thieno[2,3-d]pyrimidin-2-yl)phenoxy)-1-morpholinoethan-1-one], for which the IC50 was over 1000 nM. With `CNC(=O)COc1cccc(-c2nc(Nc3ccc(-c4cn[nH]c4)cc3)c3sccc3n2)c1` [Example 40, 2-(3-(4-((4-(1H-pyrazol-4-yl)phenyl)amino)thieno[3,2-d]pyrimidin-2-yl)phenoxy)-N-methylacetamide], the IC50 is over 1000 nM.

Regarding `CCCNC(=O)COc1cccc(-c2nc(Nc3ccc(-c4cn[nH]c4)cc3)c3sccc3n2)c1` [Example 41, 2-(3-(4-((4-(1H-pyrazol-4-yl)phenyl)amino)thieno[3,2-d]pyrimidin-2-yl)phenoxy)-N-propylacetamide], the IC50 is over 1000 nM. Still for that read-out and setting: under `CNC(=O)COc1cccc(-c2nc3c(c(Nc4ccc(-c5cn[nH]c5)cc4)n2)COC3)c1` [Example 42, 2-(3-(4-((4-(1H-pyrazol-4-yl)phenyl)amino)-5,7-dihydrofuro[3,4-d]pyrimidin-2-yl)phenoxy)-N-methylacetamide] stands over 1000 nM; under `CNC(=O)COc1cccc(-c2nc(Nc3ccc(-c4cn[nH]c4)cc3)c3ccsc3n2)c1` [Example 45, 2-(3-(4-((4-(1H-pyrazol-4-yl)phenyl)amino)thieno[2,3-d]pyrimidin-2-yl)phenoxy)-N-methylacetamide], over 1000 nM. With `CCCNC(=O)COc1cccc(-c2nc(Nc3ccc(-c4cn[nH]c4)cc3)c3ccsc3n2)c1` [Example 46, 2-(3-(4-((4-(1H-pyrazol-4-yl)phenyl)amino)thieno[2,3-d]pyrimidin-2-yl)phenoxy)-N-propylacetamide], the IC50 was in the range of 501 to 1000 nM. With `O=C(Nc1cccc(-c2nc3c(c(Nc4ccc(-c5cn[nH]c5)cc4)n2)COC3)c1)c1cccnc1` [Example 47, N-(3-(4-((4-(1H-pyrazol-4-yl)phenyl)amino)-5,7-dihydrofuro[3,4-d]pyrimidin-2-yl)phenyl)nicotinamide], the IC50 was 10 to 100 nM. Same read-out and setting: with `CC(C)NC(=O)COc1cccc(-c2nc(Nc3ccc(-c4cn[nH]c4)cc3)c3ncccc3n2)c1` [Example 48, 2-(3-(4-((4-(1H-pyrazol-4-yl)phenyl)amino)pyrido[3,2-d]pyrimidin-2-yl)phenoxy)-N-isopropylacetamide] the figure was over 1000 nM; with `O=C(COc1cccc(-c2nc(Nc3ccc(-c4cn[nH]c4)cc3)c3ncccc3n2)c1)NC1CCC1` [Example 49, 2-(3-(4-((4-(1H-pyrazol-4-yl)phenyl)amino)pyrido[3,2-d]pyrimidin-2-yl)phenoxy)-N-cyclobutylacetamide], 101 to 250 nM. As to `CC(C(=O)Nc1cccc(-c2nc(Nc3ccc(-c4cn[nH]c4)cc3)c3ncccc3n2)c1)N1CCOCC1` (stereo not shown) [Example 50, N-(3-(4-((4-(1H-pyrazol-4-yl)phenyl)amino)pyrido[3,2-d]pyrimidin-2-yl)phenyl)-2-morpholinopropanamide], the IC50 lay in the range of 501 to 1000 nM. Still for that read-out and setting: with `O=C(COc1cccc(-c2nc(Nc3ccc(-c4cn[nH]c4)cc3)c3ncccc3n2)c1)NC1CCCC1` [Example 51, 2-(3-(4-((4-(1H-pyrazol-4-yl)phenyl)amino)pyrido[3,2-d]pyrimidin-2-yl)phenoxy)-N-cyclopentylacetamide] the figure was 10 to 100 nM.

For the origin of these results see US10273248B2, “Glucose uptake inhibitors” (Kadmon Corporation LLC, priority 2015, dated 2019).
